The values below come from PMC7290365, “Human Induced Pluripotent Stem Cell-Derived 3D-Neurospheres Are Suitable for Neurotoxicity Screening” (Cells, 2020).

Data set [1] concerns hiPSC-derived 3D neurospheres. As to the kind of experiment: cells. It is filed as cell-based, human. As to conditions: for EC10 / EC25 / EC50: Homo sapiens, 72 h. The method, then:
After thawing, NSCs (generated as detailed above) were cultured on POL/L (0.002%/1 µg/cm^2) coated plates (50,000 cells/cm^2). When reached 100% confluence NSCs were propagated with Accutase treatment and single-cell suspension was plated onto a low-adherent 96-well plate with 10,000 cells/well in NMM medium. […] Samples were collected at Day 0 (D0), Day 2 (D2), and weekly intervals from the end of the 1st week (D7) until the end of the 6th week (D14, D21, D28, D35, and D42).
Eleven well-known compounds were tested in 7 different concentrations to generate concentration-response curves. The tested compounds with the used concentrations are detailed in Table S3. […] In each assay plate, 4 technical replicates were applied from each sample and 3 biological replicate assays were run (n = 3). The 3D cell cultures were exposed to the toxicants for 72 h (exposure schemes are detailed in Figure 5A or Figure 6A or Figure 7A). Vehicle control was used as a regular medium supplemented with 0.1% DMSO.
ATP viability assay was performed with CellTiter-Glo® 3D Cell Viability Assay, according to the manufacturer’s protocol (Promega). Neurospheres were lysed with 100 μL CellTiter-Glo® 3D Reagent for 60 min at RT. Luminescence signal was recorded with a Thermo VarioScan Flash (Thermo Fisher Scientific) plate reader.
All results were analyzed using Prism 5 (GraphPad Software, La Jolla, CA, USA) and handled in Microsoft Office 2010 (Microsoft, Redmond, WA, USA) software. For normalization of the concentration response, the average values of positive control were used as 0% and the average of vehicle control served as 100%. Four parameter curve fitting methods were used to determine EC10 and EC50 values, where the data on the graphs represent the average of three biological replicates. The “n” value corresponds to the number of biological replicates for each tested concentration. Analysis of data is presented as the mean ± SEM. Significance of data was determined with paired T test for RT-qPCR (* p < 0.01) and with One-way ANOVA for concentration response (* p < 0.05; ** p < 0.01).

Data set [2] deals with in vitro multicellular cytotoxicity. As to conditions: multicellular cytotoxicity "comptox" data; ref EPA's Chemical dashboard (https://comptox.epa.gov/dashboard); cited from earlier work.
The next data set deals with humans. To be noted: ref PubChem database (https://pubchem.ncbi.nlm.nih.gov/), cited from earlier work.
Another data set deals with rat. Set-up: method as in PubChem database (https://pubchem.ncbi.nlm.nih.gov/). To be noted: ref PubChem database (https://pubchem.ncbi.nlm.nih.gov/), cited from earlier work.
Where [3] appears, read: D21 stage, 72 h exposure, investigated concentration range.
Where [4] appears, read: D21 3D neurospheres, 72 h exposure, read-out: EC10 (cell viability) (converted).
The mark [5] stands for this setting: D21 3D neurospheres, 72 h exposure, read-out: EC25 (cell viability) (converted).
Where [6] appears, read: D21 3D neurospheres, 72 h exposure, read-out: EC50 (cell viability) (converted).
Setting [7] is: D28 3D neurospheres, 72 h exposure, read-out: EC10 (cell viability) (converted).
The mark [8] stands for this setting: D28 3D neurospheres, 72 h exposure, read-out: EC25 (cell viability) (converted).
Where [9] appears, read: D28 3D neurospheres, 72 h exposure, read-out: EC50 (cell viability) (converted).
Setting [10] is: D42 3D neurospheres, 72 h exposure, read-out: EC10 (cell viability) (converted).
Setting [11] is: D42 3D neurospheres, 72 h exposure, read-out: EC25 (cell viability) (converted).
Setting [12] is: D42 3D neurospheres, 72 h exposure, read-out: EC50 (cell viability) (converted).
The mark [13] stands for this setting: D21 3D neurospheres, 72 h exposure.
Where [14] appears, read: D28 3D neurospheres, 72 h exposure.
Setting [15] is: D42 3D neurospheres, 72 h exposure.
Setting [16] is: read-out: EC10 (cell viability).
The mark [17] stands for this setting: read-out: EC25 (cell viability).
The mark [18] stands for this setting: read-out: EC50 (cell viability).

Structures are written as SMILES. Structures can show the parent of a compound that is named as a salt. Where two headings read alike, the source gives them in different places. Where only a bound is given, the exact number is not on record here.

In the case of `C=CC(N)=O` [Acrylamide, 2-Propenamide], in data set [1], the “EC10 (cell viability)” value is reported as above 3.5 log µM and the “EC25 (cell viability)” value is given as above 3.5 log µM.
As to `COc1cc2c(c(OC)c1OC)-c1ccc(OC)c(=O)cc1[C@@H](NC(C)=O)CC2` [Colchicine, (S)-N-(5,6,7,9-Tetrahydro-1,2,3,10-tetramethoxy-9-oxobenzo[a]heptalen-7-yl)acetamide], in data set [1] (setting [3]), the “Effect on viability of 3D neurospheres (in words)” value (from here on “Effect on viability”) was “had a strong effect on the viability, but did not kill all the cells”. In addition, the 10% effect concentration (EC10) was 0.000257 µM in data set [1] (read-out: EC10 (cell viability), D21 3D neurospheres, 72 h exposure) and 0.000282 µM in data set [1] (read-out: EC10 (cell viability), D42 3D neurospheres, 72 h exposure). The concentration for an effect of 25% (EC25) in data set [1] (read-out: EC25 (cell viability), D21 3D neurospheres, 72 h exposure) is 0.00912 µM; in data set [1] (read-out: EC25 (cell viability), D28 3D neurospheres, 72 h exposure), 0.0129 µM; in data set [1] (read-out: EC25 (cell viability), D42 3D neurospheres, 72 h exposure), 0.00575 µM. Also, the “In vitro cytotoxicity limit” value in data set [2] was 0.02 µM. Further, the “Probable oral lethal dose in humans” value with humans (oral) is on record as below 5 mg/kg.
On to `COc1cccc2c1C(=O)c1c(O)c3c(c(O)c1C2=O)C[C@@](O)(C(=O)CO)C[C@@H]3O[C@H]1C[C@H](N)[C@H](O)[C@H](C)O1` [Doxorubicin, Doxorubicin hydrochloride], for which the LD50 entry in the data set on rat (subcutaneous) was “• - Intercalating chemotherapy drug; • - inhibiting the movement of topoisomerase II, which leads to the blocking of both replication and transcription; and • - LD50: 21.8 mg/kg (rat, subcutaneous)”. Besides, in data set [1] (setting [3]), the “Effect on viability” value is reported as “caused maximum cell death”. In addition, the 10% effect concentration (EC10) in data set [1] (setting [4]) was 0.263 µM; in data set [1] (setting [7]), 2.14 µM; in data set [1] (setting [10]) it was 3.09 µM. The results for the concentration for an effect of 25% (EC25) in data set [1] (setting [5]), in data set [1] (setting [8]) and in data set [1] (setting [11]) were 1.1 µM, 5.25 µM and 7.94 µM, respectively. Also, the figures for the concentration giving a half-maximal response (EC50) in data set [1] (setting [6]), in data set [1] (setting [9]) and in data set [1] (setting [12]) were 4.68 µM, 12.9 µM and 20.9 µM, respectively.
Regarding `Oc1c(Cl)cc(Cl)c(Cl)c1Cc1c(O)c(Cl)cc(Cl)c1Cl` [Hexachlorophene, 2,2′-Methylenebis(3,4,6-trichlorophenol)], the LD50 in the data set on rat (oral) is listed as 66 mg/kg. In addition, the “Effect on viability” value in data set [1] (setting [3]) was “had a strong effect on the viability, but did not kill all the cells”. The EC10 is 0.631 µM in data set [1] (setting [4]), 0.257 µM in data set [1] (setting [7]) and 0.0661 µM in data set [1] (setting [10]). Further, the results for the concentration for an effect of 25% (EC25) in data set [1] (setting [5]), in data set [1] (setting [8]) and in data set [1] (setting [11]) were 3.39 µM, 1.62 µM and 0.457 µM, respectively. Besides, the concentration for a half-maximal effect (EC50) in data set [1] (setting [6]) was 18.2 µM; in data set [1] (setting [9]) it was 10.2 µM; in data set [1] (setting [12]), 3.16 µM. The “In vitro cytotoxicity limit” value in data set [2] is given as 1.86 µM.
For the molecule `CC(C)Cc1ccc(C(C)C(=O)O)cc1` (stereo not drawn) [Ibuprofen, α-Methyl-4-(isobutyl)phenylacetic acid], in data set [1] (setting [13]), the “EC50 (cell viability)” value is reported as above 2 log µM. Further, in data set [1] (setting [3]), the “Effect on viability” value was “did not decrease the viability”. In addition, the EC10 in data set [1] (setting [4]), in data set [1] (setting [7]) and in data set [1] (setting [10]) was above 100 µM throughout. The 25% effect concentration (EC25) in data set [1] (setting [5]), in data set [1] (setting [8]) and in data set [1] (setting [11]) was above 100 µM in each case. Also, the EC50 in data set [1] (setting [6]), in data set [1] (setting [9]) and in data set [1] (setting [12]) was above 100 µM throughout. In data set [1] (investigated concentration range, D21, D28, D42 neurospheres), the “Effect on cell viability (in words)” value is “no effect on neuronal cell viability”. For the same molecule, in the data set with humans (individuals), the “Consumed dose at which overdose symptoms appear” value is listed as above 99 mg/kg.
As to `[Cl][Hg][Cl]` [Mercury(II) chloride], the “EC10 (cell viability)” value in data set [1] (setting [13]) is 1.1 log µM; in data set [1] (setting [14]), 1.4 log µM; in data set [1] (setting [15]), 1.34 log µM. The “EC25 (cell viability)” value in data set [1] (setting [13]) stood at 1.5 log µM; in data set [1] (setting [14]) it was 1.60 log µM; in data set [1] (setting [15]), 1.54 log µM. For the same molecule, the figures for the “EC50 (cell viability)” value in data set [1] (setting [13]), in data set [1] (setting [14]) and in data set [1] (setting [15]) were 1.87 log µM, 1.83 log µM and 1.74 log µM, respectively. Also, in data set [1] (setting [3]), the “Effect on viability” value is given as “caused maximum cell death”. The “In vitro cytotoxicity limit” value in data set [2] is reported as 1.37 µM. The “Probable oral lethal dose in humans” value in the data set with humans (oral) was 5 to 50 mg/kg.
As to `CC(=O)Nc1ccc(O)cc1` [Paracetamol, 4′-Hydroxyacetanilide], the LD50 in the data set with rat (oral) is given as 2400 mg/kg. Further, in data set [1], the “EC50 (cell viability)” value is recorded as above 2 log µM and the “Effect on viability” value is reported as “minimal effect on the viability”. The concentration for an effect of 10% (EC10) in data set [1] (setting [16]) is above 100 µM. In data set [1] (setting [17]), the EC25 was above 100 µM. The EC50 in data set [1] (setting [18]) was above 100 µM. For the same molecule, the “Acute overdose at which hepatic toxicity occurred in humans” value in the data set on humans is recorded as above 10 g.
Consider `C[n+]1ccc(-c2cc[n+](C)cc2)cc1` [Paraquat, 1,1′-Dimethyl-4,4′-bipyridinium dichloride hydrate], for which the “Effect on viability” value in data set [1] (setting [3]) is on record as “caused maximum cell death”. The EC10 was 14.1 µM in data set [1] (setting [4]), 22.4 µM in data set [1] (setting [7]) and 12.3 µM in data set [1] (setting [10]). Also, the values for the EC25 in data set [1] (setting [5]), in data set [1] (setting [8]) and in data set [1] (setting [11]) were 33.1 µM, 46.8 µM and 27.5 µM, respectively. Besides, the values for the EC50 in data set [1] (setting [6]), in data set [1] (setting [9]) and in data set [1] (setting [12]) were 77.6 µM, 95.5 µM and 61.7 µM, respectively. Besides, the “Probable oral lethal dose in humans” value in the data set with humans (oral) was “• - Herbicide; • - neurotoxic: occupational exposures leading to Parkinson’s disease [74]; • - widely investigated neurotoxic mechanism [75, 76]; and • - probable oral lethal dose in humans is 35 mg/kg”.
In the case of `CO[C@H]1/C=C/O[C@@]2(C)Oc3c(C)c(O)c4c(O)c(c(/C=N/N5CCN(C)CC5)c(O)c4c3C2=O)NC(=O)/C(C)=C\C=C\[C@H](C)[C@H](O)[C@@H](C)[C@@H](O)[C@@H](C)[C@H](OC(C)=O)[C@@H]1C` [Rifampicin, 3-(4-Methylpiperazinyliminomethyl)rifamycin], in the data set with rat (route not given), the LD50 is 1570 mg/kg. For the same molecule, in data set [1], the “EC50 (cell viability)” value is above 2 log µM and the “Effect on viability” value is given as “reduced the viability”. In addition, the EC10 in data set [1] (setting [16]) was above 100 µM. The EC25 in data set [1] (setting [17]) was above 100 µM. Also, in data set [1] (setting [18]), the EC50 was above 100 µM. Also, the “Probable lethal oral dose in humans” value with humans (oral) is 14 to 60 g.

The term EC10 denotes the concentration at which the effect reaches the 10% level. One may read the EC25 as the point of the concentration-response curve where the effect stands at 25%. Broadly, the LD50 is the dose at which mortality reaches 50%. As usually defined, the EC50 is the concentration that produces a half-maximal response.
